Legend:
Format in all cases: cell-based, Acer pseudoplatanus L.
[1] = tested on: 1,4 β-D-glucanase (EC 3.2.1.4); assay: Induction of a 1,4 β-D-glucanase response in elicited cells; details: elicited cells; cycloheximide (1 μM); late response
Procedure: (§1) Vegetable material: Acer pseudoplatanus L Cells in Suspension
(§2) Test: 2.10^6 Acer pseudoplatanus L. cells were elicited under circular stirring (80 rpm), in 25 ml of culture medium (without 2,4-D) by 50 nM of 2′-fucosyl lactose (compound A) or 50 nM of methyl α-L-Fuc (1→2) β-D-Gal (1→2) β-D-Xyl trisaccharide (compound B)(synthesized according to Lopez et al., 1994) or for a variable time (0 to 42 hours) in the presence or not in the presence of an effector: cycloheximide (1 μM), okadaic acid (5 nM), staurosporine (500 nM), or boroglycine (500 nM). The elicitation experiment is stopped by putting the cells in ice. The cells recovered after decantation and taken up in approximately 1 ml of elicitation buffer are the subject of a specific protein extraction.
(§3) D-glycosylhydrolase extraction. The enzyme extracts are prepared from elicited or non-elicited cells. The cells are homogenized at 0° C. in Tris-HCl buffer (50 mM pH 7.2) containing 1 M of NaCl with a Vibracell™ Bioblock sonicator, maximum power, for 3 times 1 minute. The homogenates are centrifuged at 4° C. (12000 g, 15 minutes) then dialysed and concentrated on Ultrafree™ Millipore ultrafiltration units (cut-off threshold 10 kDa). The retentates, taken up in distilled water, are crude extracts.
(§4) 1,4 β-D-glucanase activity assay. This is based on colorimetric assay (ferricyanide test of Kidby and Davidson (1973) of the cellopentaose substrate reducing units released during the hydrolysis. The reaction medium contains the enzyme extract (1 μg of proteins), reduced cellopentaose (4 μM) in 100 μl of sodium acetate buffer (0.1 M), pH 5.0); the enzymatic reaction at 40° C. develops over a variable time (1 to 3 hours).
(§5) Evaluation of the experimental data. At least 2 kinetics were carried out per sample, and per set of experiments. The reaction rate (ΔA410 minutes^−1 for example) is obtained by linear regression from 4 kinetic curves. The results are expressed by the ratio R (enzymatic activity in elicited cells/enzymatic activity in non-elicited control cells).

[2] = tested on: 1,3 β-D-glucanase (EC 3.2.1.39); assay: Induction of a 1,3 β-D-glucanase response in elicited cells; details: elicited cells; cycloheximide (1 μM); late response
Procedure: as §1, §2, §3
as §4, with “1,3” for “1,4”, “the” for “the cellopentaose”, “units (laminarin or laminarin hexamer)” for “units”, “proteins), the substrate (5 μM of” for “proteins),”, “laminarin hexamer)” for “cellopentaose (4 μM)”
as §5

glycosylhydrolases = assay: Effect of effectors on the glycosylhydrolase elicitation responses; details: okadaic acid 5 nM, boroglycine 500 nM; for Early glycosylhydrolase elicitation responses in the presence of the effector: cycloheximide 1 μM, modulation with the exception of 1,3 β-D-glucanase activity
Procedure: as §2, §3, §5

[3] = tested on: Phospholipase D (E.C: 3.1.4.4); assay: Elicitation of phospholipase D activity (NBD-PE fluorescence); details: methyl jasmonate 0 to 5 nM; 2′-fucosyl lactose 1 nM; dose-dependent
From the text: Vegetable material: Acer pseudoplatanus L. cells in Suspension
Phospholipase D (E.C: 3.1.4.4) (Plase D) activity: this is a phosphatidylcholine phosphatidohydrolase which releases the O-R3 group, according to the diagram below. To the extent that O-R3 is marked (a fluorochrome for example), quantifying this group is equivalent to assaying Plase D activity. For the experiments the substrate used is phosphatidylcholine conjugated to a fluorochrome, i.e. the product nitrobenzoxadiazole phosphoethanolamine (NBD-PE). The retained excitation and emission wavelengths of the fluorochrome are 460 nm and 534 nm respectively. [drawing 5]
Principle: assaying Plase D activity is equivalent to estimating the fluorescence variation at 534 nm of a reaction medium with a spectrofluorimeter (Perkin Elmer).
Test: the reaction medium in a microtitration plate well is as follows: 1.3 10^7 Acer pseudoplatanus L. cells are incubated in a 50 mM HEPES buffer, pH 6.8 enriched with CaCl2 (1 μM), ATP (2 μM), octyl-D-glucoside 50 μM, GTP (6 μM) in the presence of the NBD-PE substrate (4 μM), in the presence or absence of an elicitor (0-100 nM): 2′-fucosyl-lactose (FL), compound A; XXFGol, compound B, in the presence or not in the presence of a methyl jasmonate effector (0-5 nM). The Plase D activity assay is carried out by measuring the fluorescence at 534 nm.
Evaluation of the experimental data. For each sample at least three kinetics are recorded; the Plase D activity is given by the slope of the regression curve. The results are expressed by Δ F534 min^−1. One point on the graph corresponds to the linear regression treatment of at least 2 kinetic curves originating from 2 different samples.
The Plase D elicitation response is evaluated according to the fluorescence variation at […]; the 100% reference value corresponds to the fluorescence in the controls (non-elicited cells)

| Plase D elicitation: methyl jasmonate versus 2′-fucosyl lactose [3] | Compound | 1,4 β-D-glucanase late response R in the presence of cycloheximide [1] | 1,3 β-D-glucanase late response R in the presence of cycloheximide [2] | Early glycosylhydrolase elicitation responses in the presence of the effector (glycosylhydrolases) | Late glycosylhydrolase elicitation responses in the presence of the effector (glycosylhydrolases) |
| --- | --- | --- | --- | --- | --- |
| – | C[C@@H]1C[C@@H]([C@H](O)CC2CC(=O)NC(=O)C2)C(=O)[C@@H](C)C1 [cycloheximide, reference compound] | ~2 | ~3 | maintained | – |
| antagonistic | CC/C=C\CC1C(=O)CCC1CC(=O)OC (centres unmarked) [methyl jasmonate, reference compound] | – | – | – | – |
| – | C=C1[C@@H](O)[C@@H]2O[C@]3(CC[C@H](/C=C/[C@@H](C)[C@@H]4CC(C)=C[C@@]5(O[C@H](C[C@@](C)(O)C(=O)O)CC[C@H]5O)O4)O3)CC[C@H]2O[C@@H]1[C@@H](O)C[C@H](C)[C@H]1O[C@@]2(CCCCO2)CC[C@H]1C [okadaic acid] | – | – | modulated | not affected |
| – | boroglycine | – | – | modulated | not affected |
